Laboratory results reported in publication PMC8802628, “Selective activation of PFKL suppresses the phagocytic oxidative burst” (Cell, 2021).
Where a chain is given by its changes, count along the chain named.

Tests used:
[1] = biological target: T1, PFKL(K315R) (PFKL−pocket) (Homo sapiens, UniProt P17858, K315R); assay: Recombinant PFKL−pocket activity assay; type: biochemical; conditions: for EC50: pH 7.5, 3.1 mM ATP, 4 mM F6P, mean ± SEM, read-out: EC50, activation of PFKL−pocket
T1 construct: made in house; host or cells: Sf9 insect cells (baculovirus)
T1 sequence (P17858 1-780 K315R): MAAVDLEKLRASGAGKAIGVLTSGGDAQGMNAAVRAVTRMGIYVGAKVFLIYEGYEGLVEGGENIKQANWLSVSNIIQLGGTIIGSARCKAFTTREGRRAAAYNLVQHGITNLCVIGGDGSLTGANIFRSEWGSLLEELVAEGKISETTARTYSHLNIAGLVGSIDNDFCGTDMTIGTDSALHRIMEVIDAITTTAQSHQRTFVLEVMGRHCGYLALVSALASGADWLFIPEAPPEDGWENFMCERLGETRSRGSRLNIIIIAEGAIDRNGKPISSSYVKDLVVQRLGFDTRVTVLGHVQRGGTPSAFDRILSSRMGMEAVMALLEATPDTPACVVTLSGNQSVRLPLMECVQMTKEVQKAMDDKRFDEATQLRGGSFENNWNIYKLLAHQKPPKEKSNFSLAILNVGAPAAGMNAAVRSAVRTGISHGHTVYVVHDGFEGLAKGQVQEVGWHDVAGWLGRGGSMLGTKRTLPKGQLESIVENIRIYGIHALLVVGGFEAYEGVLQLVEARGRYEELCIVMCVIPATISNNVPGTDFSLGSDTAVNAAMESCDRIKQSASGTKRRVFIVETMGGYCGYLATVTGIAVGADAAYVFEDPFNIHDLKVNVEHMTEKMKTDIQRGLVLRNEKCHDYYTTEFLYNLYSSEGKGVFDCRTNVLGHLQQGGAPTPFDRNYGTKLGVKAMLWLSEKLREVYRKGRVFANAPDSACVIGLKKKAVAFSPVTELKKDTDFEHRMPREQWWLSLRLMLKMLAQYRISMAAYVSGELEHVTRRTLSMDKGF
From the text: (§1) Recombinant N-terminal His-tagged human PFKL (NP_002617), PFKM (NP_000280), and PFKP (NM_002627.4) were generated as described ([Webb et al., 2015], [2017]). Point mutants of PFK1 were generated using the QuikChange Lightning kit (Aligent).
(§2) His-tagged PFK1 was expressed and purified as described with slight modifications ([Webb et al., 2015], [2017]). Briefly, baculovirus was generated using the Bac-to-Bac Expression system (Invitrogen). PFK1 was expressed in 2-5 × 10^6 sf9 cells at a multiplicity of infection of two for 48 h. Cells were lysed in 20 mM HEPES, pH 7.5, 80 mM potassium phosphate, 1 mM 2-mercapentoethanol, 10% glycerol, 10 mM imidazole, and EDTA-free Protease Inhibitor Cocktail (Abcam) with a Dounce homogenizer. The soluble lysate was incubated with HisPur cobalt resin (ThermoFisher Scientific). The resin was washed with 5 bead volumes lysis buffer, 10 bead volumes lysis buffer containing 2 M NaCl, and 5 further bead volumes lysis buffer. PFK1 was eluted in lysis buffer containing 100 mM imidazole. Fractions containing protein were pooled, passed over a desalting column equilibrated in freezing buffer [20 mM HEPES pH 7.5, 1 mM DTT, 500 μM ammonium sulfate, 5% glycerol, 1 mM ATP, and 100 μM EDTA] and concentrated using an Amicon Ultracel-30K Centrifugal Filter Unit (MilliporeSigma). Protein was quantified using a Bradford Protein Assay kit (ThermoFisher Scientific), and aliquotes frozen in liquid nitrogen for storage at −80°C.
(§3) PFK1 activity was determined using the rate of FBP production via an auxiliary enzyme assay adapted to a 96-well format ([Brüser et al., 2012]; [Webb et al., 2015]). The auxiliary enzymes aldolase, triosephosphate isomerase, and glycerol phosphate dehydrogenase were purchased from MilliporeSigma as ammonium sulfate slurries and desalted using an Amicon Ultracel-10K Centrifugal Filter Unit. For assays containing FBP, the rate of ADP production was determined using the auxiliary enzymes pyruvate kinase (PK) and lactate dehydrogenase (LDH) (MilliporeSigma) in a buffer containing 250 μM phosphoenolpyruvic acid, […] NADH, 50 mM HEPES pH 7.5, 100 mM KCl, 1 mM DTT, and effector concentrations as described in the text. The temperature was equilibrated to 25°C for 5 min before initiating the reaction 10 mM MgCl2. Absorbance at 340 nm was measured using a Varioskan LUX Multimode microplate reader (ThermoFisher). Kinetic parameters were generated by nonlinear regression analysis using Prism (GraphPad Software) and are the mean of a minimum of three measurements from two independent preparations of protein. One unit of activity was defined as the amount of enzyme that catalyzed the formation of 1 μmol of fructose 1,6-bisphosphate per min at 25°C. Assays for PFKM were performed at pH 7.0 due to the pH-dependence of ATP inhibition ([Trivedi and Danforth, 1966]).

[2] = biological target: T2, PFKL(V545L, V582M) (PFKL−hook) (Homo sapiens, UniProt P17858, V545L/V582M); assay: Recombinant PFKL−hook activity assay; type: biochemical; conditions: for EC50: pH 7.5, 3.1 mM ATP, 2.5 mM F6P, mean ± SEM, read-out: EC50, activation of PFKL−hook
T2 construct: made in house; host or cells: Sf9 insect cells (baculovirus)
T2 sequence (P17858 1-780 V545L/V582M): T1 sequence (P17858 1-780 K315R) with R315K, V545L, V582M
From the text: as §1, §2
as §3, with “Assays for PFKM were performed at pH 7.0 due to the pH-dependence of ATP inhibition ([Trivedi and Danforth, 1966]).” left out

[3] = PFKL−pocket, pH 7.5, 225 μM ATP

| hF6P (Hill coefficient) [1, 3] | hF6P (Hill coefficient) ([2]; PFKL−hook, pH 7.5, 225 μM ATP) | fold change of EC50,NA-5 of PFKL−pocket versus wild-type PFKL [1] | SMILES | Vmax,F6P [1, 3] | Vmax,F6P ([2]; PFKL−hook, pH 7.5, 225 μM ATP) | EC50 [1] | EC50 [2] |
| --- | --- | --- | --- | --- | --- | --- | --- |
| 3.26 ± 0.48 | 2.87 ± 0.50 |  | O=C(CO)[C@@H](O)[C@H](O)[C@H](O)COP(=O)(O)O [F6P, fructose 6-phosphate] | 14.68 ± 0.98 micromoles FBP per minute per milligram PFK1 | 11.50 ± 0.57 micromoles FBP per minute per milligram PFK1 |  |  |
|  |  | ~ 30 fold | CC(=O)Nc1ccc2c(c1)OCc1cc(-c3ccccc3)nn1C2 [NA-5] |  |  | 615 ± 138 nM | 18.1 ± 3.19 nM |
|  |  |  | CC(=O)Nc1ccc2c(c1)OCc1cc(-c3ccccc3C#CCCCO)nn1C2 [NA-11] |  |  | 167 ± 27.8 nM | 53.3 ± 5.77 nM |
